Values joined by “and” are separate entries in the source; they are usually repeats but may differ in a detail not shown here. Equal values may be shown once. Read-outs that look alike come from different tables or passages of the source.
Assay: 14-day rat neurotoxicology study: toxicokinetics
Type: in vivo, Sprague-Dawley rats
Settings: for AUC / concentration at 15 day / Cmax: Sprague-Dawley, rat, plasma; for concentration at 15 day: read-out: plasma level at the time of sacrifice
Method: An appropriate amount of methylcellulose (MC) was weighed and mixed with a small amount of warm water for injection. The mixture was then diluted with water for injection to make a 0.5% (w/v) MC solution. The vehicle was used for dosing in the control group. To make a 40 mg/mL suspension of COMPOUND A, an appropriate amount of the test article was weighed and mixed with the vehicle using a planetary centrifugal mixer and the mixture was then diluted with additional vehicle. The 40 mg/mL suspension was used to make 20 and 10 mg/mL suspensions by stepwise dilutions with the vehicle. The dosing suspensions were stored in a refrigerator (actual values: 3.7° C. to 6.1° C., acceptable range: 2° C. to 8° C.) under light-resistant conditions (tight container) and used within 8 days after preparation.
Males and females in good condition were selected for this study based on examinations within 4 days before the first dosing. Based on their body weights, animals were stratified and allocated randomly to 3 main study groups, each composed of 18 males and 18 females, and 2 satellite groups each composed of 9 males and 9 females for determination of plasma drug and metabolite concentrations. Surplus animals after animal selection were excluded from the study on the day after the animal selection or the day dosing commenced (Day 1).
Referring to Tables 4A and 4B, the plasma concentrations of COMPOUND A on Days 2, 7, and 14 were determined in each satellite group. Blood samples (approximately 0.25 mL) were drawn without anesthesia from the subclavian vein of 3 animals of each sex in the satellite groups at each sampling point using sodium-heparinized syringes. Sampling points were as follows: pre-dose and at 1, 2, 4, 8, and 24 hours post-dose. In addition, the plasma concentrations of COMPOUND A before scheduled necropsy were determined in each main study group. The plasma samples (≥0.08 mL) in polypropylene tubes were frozen and stored in a freezer (actual values: −87.0° C. to −83.5° C.) until shipment with parallel quality control (QC) samples prepared by test site 2 and stored under the same conditions as study plasma samples in the test facility. The samples, including the parallel QC samples, were packed with dry ice and shipped to test site 2. The samples were stored frozen at −85.8° C. to −75.5° C. until assay. The plasma concentrations of COMPOUND A and its metabolites, were determined by liquid chromatography/tandem mass spectrometry (LC/MS/MS) and the TK parameters (tmax, Cmax, and AUC24 value) on Days 2, 7, and 14 were calculated for the satellite groups at test site 2.

## CC1=CN2CCS(=O)(=O)N=C2C(c2ccc(OC3CCCCC3)cc2)=N1 [COMPOUND A, 9-[4-(Cyclohexyloxy)phenyl]-7-methyl-3,4-dihydropyrazino[2,1-c][1,2,4]thiadiazine 2,2-dioxide]
Day 15, females at 200 mg/kg/day not observed to convulse, no brain histopathology, individual animals, 200 mg/kg/day
  plasma level at the time of sacrifice: 192 ng/mL and 968 ng/mL and 114 ng/mL
Day 15, females at 200 mg/kg/day with lesions visible with Fluoro-Jade only, individual animals, 200 mg/kg/day
  plasma level at the time of sacrifice: 138 ng/mL
Both sexes, oral, 100 mg/kg/day, NOAEL 100 mg/kg/day, read-out: NOAEL exposure cap (AUC) from the 14-day neurotoxicity study in rats
  AUC: 17400 ng·h/mL
female, oral, 200 mg/kg/day, Day 15, female at 200 mg/kg/day with lesions visible with both HE and Fluoro-Jade, individual animal
  concentration at 15 day: 935 ng/mL
female, oral, 200 mg/kg/day, Day 15, females at 200 mg/kg/day with lesions visible with Fluoro-Jade only, individual animals
  concentration at 15 day: 182 ng/mL
female, po, 100 mg/kg/day, 100 mg/kg/day oral, female, Day 2
  Cmax: 1640 ng/mL
female, po, 100 mg/kg/day, 100 mg/kg/day oral, female, Day 2, read-out: AUC24
  AUC: 20500 ng·h/mL
female, po, 100 mg/kg/day, 100 mg/kg/day oral, female, Day 7
  Cmax: 1270 ng/mL
female, po, 100 mg/kg/day, 100 mg/kg/day oral, female, Day 7, read-out: AUC24
  AUC: 14900 ng·h/mL
female, po, 100 mg/kg/day, 100 mg/kg/day oral, female, Day 14
  Cmax: 1670 ng/mL
female, po, 100 mg/kg/day, 100 mg/kg/day oral, female, Day 14, read-out: AUC24
  AUC: 17800 ng·h/mL
female, po, 200 mg/kg/day, 200 mg/kg/day oral, female, Day 2
  Cmax: 1630 ng/mL
female, po, 200 mg/kg/day, 200 mg/kg/day oral, female, Day 2, read-out: AUC24
  AUC: 18000 ng·h/mL
female, po, 200 mg/kg/day, 200 mg/kg/day oral, female, Day 7
  Cmax: 2340 ng/mL
female, po, 200 mg/kg/day, 200 mg/kg/day oral, female, Day 7, read-out: AUC24
  AUC: 31800 ng·h/mL
female, po, 200 mg/kg/day, 200 mg/kg/day oral, female, Day 14
  Cmax: 2210 ng/mL
female, po, 200 mg/kg/day, 200 mg/kg/day oral, female, Day 14, read-out: AUC24
  AUC: 27600 ng·h/mL
male, po, 50 mg/kg/day, 50 mg/kg/day oral, male, Day 2
  Cmax: 836 ng/mL
male, po, 50 mg/kg/day, 50 mg/kg/day oral, male, Day 2, read-out: AUC24
  AUC: 9480 ng·h/mL
male, po, 50 mg/kg/day, 50 mg/kg/day oral, male, Day 7
  Cmax: 841 ng/mL
male, po, 50 mg/kg/day, 50 mg/kg/day oral, male, Day 7, read-out: AUC24
  AUC: 10700 ng·h/mL
male, po, 50 mg/kg/day, 50 mg/kg/day oral, male, Day 14
  Cmax: 728 ng/mL
male, po, 50 mg/kg/day, 50 mg/kg/day oral, male, Day 14, read-out: AUC24
  AUC: 8750 ng·h/mL
male, po, 100 mg/kg/day, 100 mg/kg/day oral, male, Day 2
  Cmax: 1200 ng/mL
male, po, 100 mg/kg/day, 100 mg/kg/day oral, male, Day 2, read-out: AUC24
  AUC: 15000 ng·h/mL
male, po, 100 mg/kg/day, 100 mg/kg/day oral, male, Day 7
  Cmax: 917 ng/mL
male, po, 100 mg/kg/day, 100 mg/kg/day oral, male, Day 7, read-out: AUC24
  AUC: 13000 ng·h/mL
male, po, 100 mg/kg/day, 100 mg/kg/day oral, male, Day 14
  Cmax: 1290 ng/mL
male, po, 100 mg/kg/day, 100 mg/kg/day oral, male, Day 14, read-out: AUC24
  AUC: 17000 ng·h/mL
